Data taken from patent US20010020100A1, “N-substituted-1, 2, 4-triazolone compounds for treatment of cardiovascular disorders” (G.D. Searle & Co., priority 1994, published 2001).
pIC50: −log10 of the molar value. Several values for one entry are separate records, joined by “and”; a condition that tells them apart may be missing. Equal values may be shown once.

Experiments:
[1] = system: AII pressor response; assay: Assay C: In Vivo Intraduodenal Pressor Assay Response for AII Antagonists; set-up: species or system Sprague-Dawley rats; conditions: 30 mg/kg i.d., average of two rats; for Assay C Inhibition: inhibition of AII pressor response, anesthetized ganglion-blocked rats; for Assay C Duration: time from peak percent inhibition to 50% of peak
Procedure: Assay C: In Vivo Intraduodenal Pressor Assay Response for AII Antagonists
Male Sprague-Dawley rats weighing 225-300 grams were anesthetized with Inactin (100 mg/kg, i.p.) and catheters were implanted into the trachea, femoral artery, femoral vein and duodenum. Arterial pressure was recorded from the femoral artery catheter on a Gould chart recorder (Gould, Cleveland, OH). The femoral vein catheter was used for injections of angiotensin II, mecamylamine and atropine. The tracheal catheter allows for airway patency, and the duodenal catheter was used for intraduodenal (i.d.) administration of test compounds. After surgery, the rats were allowed to equilibrate for 30 minutes. Mecamylamine (3 mg/kg, 0.3 ml/kg) and atropine (400 ug/kg, 0.3 ml/kg) were then given i.v. to produce ganglion blockade. These compounds were administered every 90 minutes throughout the test procedure. Angiotensin II was given in bolus does i.v. (30 ng/kg in saline with 0.5% bovine serum albumin, 0.1 ml/kg) every 10 minutes three times or until the increase in arterial pressure produced was within 3 mmHg for two consecutive AII injections. The last two AII injections were averaged and were taken as the control AII pressor response. Ten minutes after the final control AII injection, the test compound (dissolved in sodium bicarbonate) was administered i.d. at a dose of 30 mg/kg in a volume of 0.2 ml. Angiotensin II injections were then given 5, 10, 20, 30, 45, 60, 75, 90, and 120 minutes after administration of the test compound and response of arterial pressure was monitored. The response to AII was calculated as percent of the control response and then the percent inhibition is calculated as 100 minus the percent control response. Duration of action of a test compound was defined as the time from peak percent inhibition to 50% of peak. One compound at one dose was tested in each rat. Each test compound was tested in two rats and the values for the two rats were averaged.

[2] = target: smooth muscle angiotensin II receptor; assay: Assay A: Angiotensin II Binding Activity (125I-AII displacement, rat uterine membrane preparation); conditions: 50% displacement of specifically bound 125I-AII, rat uterine membranes, 25° C., 60 min
Procedure: Compounds of the invention were tested for ability to bind to the smooth muscle angiotensin II receptor using a rat uterine membrane preparation. […] Rat uterine membranes were prepared from fresh tissue. All procedures were carried out at 4° C. Uteri were stripped of fat and homogenized in phosphate-buffered saline at pH 7.4 containing 5 mM EDTA. The homogenate was centrifuged at 1500×g for 20 min., and the supernatant was recentrifuged at 100,000×g for 60 min. The pellet was resuspended in buffer consisting of 2 mM EDTA and 50 mM Tris-HCl (pH 7.5) to a final protein concentration of 4 mg/ml. […] The reaction was initiated by the addition of membrane protein and the mixture was incubated at 25° C. for 60 min. The incubation was terminated with ice-cold 50 mM Tris-HCl (pH 7.5) and the mixture was filtered to separate membrane-bound labelled peptide from the free ligand. The incubation tube and filter were washed with ice-cold buffer. Filters were assayed for radioactivity in a Micromedic gamma counter. Nonspecific binding was defined as binding in the presence of 10 μM of unlabelled AII. Specific binding was calculated as total binding minus nonspecific binding. […] Binding data were analyzed by a nonlinear least-squares curve fitting program.

[3] = system: rabbit aortic rings; assay: Assay B: In Vitro Vascular Smooth Muscle Response for AII (antagonist activity in aortic rings); format: cell-based; conditions: antagonist at 10^-5 M, AII concentration-response curves, Schild calculation; aorta rings from two rabbits, two values per cell
Procedure: Assay B: In Vitro Vascular Smooth Muscle-Resionse for AII
The compounds of the invention were tested for antagonist activity in rabbit aortic rings. Male New Zealand white rabbits (2-2.5 kg) were sacrificed using an overdose of pentobarbital and exsanguinated via the carotid arteries. The thoracic aorta was removed, cleaned of adherent fat and connective tissue and then cut into 3-mm ring segments. The endothelium was removed from the rings by gently sliding a rolled-up piece of filter paper into the vessel lumen. The rings were then mounted in a water-jacketed tissue bath, maintained at 37° C., between moveable and fixed ends of a stainless steel wire with the moveable end attached to an FT03 Grass transducer coupled to a Model 7D Grass Polygraph for recording isometric force responses. The bath was filled with 20 ml of oxygenated (95% oxygen/5% carbon dioxide) Krebs solution of the following composition (nM) : 130 NaCl, 15 NaHCO3, 15 KCl, 1.2 NaH2PO4, 1.2 MgSO4, 2.5 CaCl2, and 11.4 glucose. […] Angiotensin II concentration-response curves were then recorded (3×10^−10 to 1×10^−5 M). […] The effectiveness of the test compound was expressed in terms of pA2 values and were calculated according to H. O. Schild [Br. J. Pharmacol. Chemother., 2,189-206 (1947)]. […] Each test antagonist was evaluated in aorta rings from two rabbits.

SMILES	Assay C Inhibition [1] [%]	Assay C Duration [1] [min]	pIC50 [2]	Assay B PA2 [3]
CCCCc1nn(CCCC)c(=O)n1Cc1ccc(-c2ccccc2C(=O)O)cc1 [Example 1, 4′-[(1,3-dibutyl-4,5-dihydro-5-oxo-1H-1,2,4-triazol-4-yl)methyl] [1,1′-biphenyl]-2-carboxylic acid]	93	60 to 100	7.00	7.3 and 6.7
CCCCc1nn(CCCC)c(=O)n1Cc1ccc(-c2ccccc2-c2nnn[nH]2)cc1 [Example 2, 2,5-dibutyl-2,4-dihydro-4-[[2-(1H-tetrazol-5-yl)[1,1′-biphenyl]-4′-yl]methyl]-3H-1,2.4-triazol-3-one]	100	>200	8.31	9.0 and 9.4
